Results reported in article PMC10538222, “Isolation and Characterization of Anti-Inflammatory Compounds from Ficus microcarpa L.f. Stem Bark” (Plants, 2023).
Read-outs that look alike come from different tables or passages of the source.

Experiments:
[1] = tested on: CFA-induced chronic inflammation rats; assay: Hematological parameters in CFA-induced chronic inflammation; assay type: in vivo, Wistar rats; conditions: 10 mg/kg p.o. once daily for 21 days; blood on 21st day
Experimental: (§1) The chronic anti-inflammatory activity of EAFMB was evaluated using the CFA-induced rat paw edema model. Wistar rats of either sex (180 to 200 g) were randomly divided into four groups, each comprising six animals. The control group (Group I) received only a vehicle (0.5% CMC, p.o.). […] Groups III to IV were treated with EAFMB (100 and 200 mg/kg, p.o., respectively) once daily for 21 days. On day 0, chronic inflammation, i.e., arthritis, was induced via injecting 0.1 mL of CFA containing 0.5% of dry heat-killed Mycobacterium tuberculosis in sterile paraffin oil into the sub-plantar region in the left hind paw of rats. The animals were evaluated for the following parameters: • % of a rise or inhibition of oedema
On the 21st day, blood was withdrawn through a retro-orbital plexus puncture from all treated groups under light ether anesthesia. The hematological parameters like hemoglobin content, total WBC count, ESR, and RBC were analyzed using Yumizen H550, HORIBA Hematology Analyzer, France.

[2] = tested on: carrageenan-induced rat paw edema; assay: Carrageenan-induced acute inflammation (rat paw edema); assay type: in vivo, Wistar albino rats; conditions: 10 mg/kg p.o.
Experimental: The acute anti-inflammatory activity of EAFMB was evaluated using the carrageenan-induced rat paw edema model. Experimental animals were randomly divided into four groups, with six animals in each group. Group I (the control group) received a vehicle (1% CMC). […] Groups III and IV (test group) were given EAFMB at 100 and 200 mg/kg p.o doses, respectively. The drugs were administered orally 1 h before the carrageenan injection. The 0.1 mL of freshly prepared carrageenan suspension was injected into the left hind paw of each rat. The paw volume was measured using a Plethysmometer (Ugo Basile 2470, Italy) at 1, 2, 3, 4, 5, and 6 h after carrageenan administration. The results were expressed as a percentage of the increase in paw swelling and a percentage of the inhibition of paw swelling compared to the initial hind paw thickness. % Increase in Paw Volume =Final Paw Volume at specific time point − Intial Paw Volume at 0 h/Intial Paw Volume at 0 h×100 % Inhibition=Paw Volume at of Control − Paw Volume of treated group/Intial Paw VoluPaw Volume at of Control me at 0 h×100

[3] = tested on: CFA-induced rat paw edema; assay: CFA-induced chronic inflammation (rat paw oedema); assay type: in vivo, Wistar rats; conditions: 10 mg/kg p.o. once daily
Experimental: as §1
After the CFA injection, the paw oedema was measured using a plethysmograph on day 0 and thereafter on days 4, 8, 14, and 21. The results were expressed as the percent rise in and percent inhibition of paw oedema as per the formulae mentioned in the acute inflammation study. • Hematological Parameters

ovine COX-1 = target: T1, ovine COX-1 (Ovis aries, UniProt P05979); assay: Colorimetric COX (ovine) inhibitor screening assay, COX-1; assay type: biochemical
T1 construct: purchased Cayman Chemical Co. 760111
T1 sequence (P05979 25-600): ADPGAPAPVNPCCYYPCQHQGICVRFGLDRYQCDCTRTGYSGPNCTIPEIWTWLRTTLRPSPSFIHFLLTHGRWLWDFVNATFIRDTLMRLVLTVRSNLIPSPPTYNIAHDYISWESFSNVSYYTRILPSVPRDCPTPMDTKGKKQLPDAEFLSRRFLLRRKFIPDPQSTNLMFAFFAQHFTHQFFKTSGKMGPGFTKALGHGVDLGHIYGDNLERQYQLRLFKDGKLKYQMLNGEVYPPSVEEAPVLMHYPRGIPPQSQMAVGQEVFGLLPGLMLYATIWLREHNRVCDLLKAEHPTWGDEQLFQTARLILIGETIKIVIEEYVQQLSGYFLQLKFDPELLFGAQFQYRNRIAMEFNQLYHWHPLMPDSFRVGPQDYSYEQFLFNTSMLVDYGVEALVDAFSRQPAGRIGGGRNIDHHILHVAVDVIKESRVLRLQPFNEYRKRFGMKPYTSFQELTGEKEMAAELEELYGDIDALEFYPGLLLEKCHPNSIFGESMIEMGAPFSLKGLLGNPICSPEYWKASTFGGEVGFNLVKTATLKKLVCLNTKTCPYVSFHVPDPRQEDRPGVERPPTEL
Text: (§2) The IC50 is the concentration of tested compounds calculated using the regression equation.

ovine COX-2 = target: T2, ovine COX-2 (Ovis aries, UniProt P79208); assay: Colorimetric COX (ovine) inhibitor screening assay, COX-2; assay type: biochemical
T2 construct: purchased Cayman Chemical Co. 760111
T2 sequence (P79208 17-603): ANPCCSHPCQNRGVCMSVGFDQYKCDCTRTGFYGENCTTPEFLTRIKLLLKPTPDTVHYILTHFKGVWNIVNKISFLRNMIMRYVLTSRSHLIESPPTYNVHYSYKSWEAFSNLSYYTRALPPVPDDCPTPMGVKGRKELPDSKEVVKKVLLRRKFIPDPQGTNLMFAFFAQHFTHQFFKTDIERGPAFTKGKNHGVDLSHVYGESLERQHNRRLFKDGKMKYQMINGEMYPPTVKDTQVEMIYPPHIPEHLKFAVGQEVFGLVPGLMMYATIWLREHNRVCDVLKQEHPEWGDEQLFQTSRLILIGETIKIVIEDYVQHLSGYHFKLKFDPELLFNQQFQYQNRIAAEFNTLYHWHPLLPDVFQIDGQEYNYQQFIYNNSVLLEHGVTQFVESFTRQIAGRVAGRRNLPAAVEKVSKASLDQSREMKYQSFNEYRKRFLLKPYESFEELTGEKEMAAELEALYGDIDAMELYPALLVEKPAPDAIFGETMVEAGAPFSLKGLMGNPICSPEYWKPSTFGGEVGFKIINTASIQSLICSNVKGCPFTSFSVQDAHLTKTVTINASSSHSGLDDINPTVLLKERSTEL
Text: as §2

Work on `COc1ccc2c(c1)c(CC(=O)O)c(C)n2C(=O)c1ccc(Cl)cc1` [Indomethacin, indomethacin] yielded an ESR [1] of 5.42 ± 0.31 mm/h, a Hb [1] of 14.62 ± 0.27 g% and an RBC [1] of 9.58 ± 0.27 millions/cubic mm. For the same compound, the WBC [1] was 6.37 ± 0.36 *** 10^3/cubic mm, the “% Inhibition of paw oedema” value ([2]; 1 h after carrageenan) was 27.78% and the “% Rise in Paw Oedema” value ([2]; 1 h after carrageenan) was 14.28 ± 0.42%. For the same compound, the “% Inhibition of paw oedema” value ([2]; 2 h after carrageenan) was 56.84%, the “% Rise in Paw Oedema” value ([2]; 2 h after carrageenan) was 15.85 ± 0.41% and the “% Inhibition of paw oedema” value ([2]; 3 h after carrageenan) was 57.97%. For the same compound, the “% Rise in Paw Oedema” value ([2]; 3 h after carrageenan) was 18.19 ±0.36%, the “% Inhibition of paw oedema” value ([2]; 4 h after carrageenan) was 59.39% and the “% Rise in Paw Oedema” value ([2]; 4 h after carrageenan) was 21.01 ± 0.51%. The “% Inhibition of paw oedema” value ([2]; 5 h after carrageenan) was 54.37%, the “% Rise in Paw Oedema” value ([2]; 5 h after carrageenan) was 26.18 ± 0.63% and the “% Inhibition of paw oedema” value ([2]; 6 h after carrageenan) was 48.18%. The “% Rise in Paw Oedema” value ([2]; 6 h after carrageenan) was 31.2 ± 0.81%, the “% Inhibition of paw oedema” value ([3]; 4th day after CFA) was 46.78% and the “% Rise in Paw Oedema” value ([3]; 4th day after CFA) was 41.92 ± 1.46%. For the same compound, the “% Inhibition of paw oedema” value ([3]; 8th day after CFA) was 70.16%, the “% Rise in Paw Oedema” value ([3]; 8th day after CFA) was 27.95 ± 1.58% and the “% Inhibition of paw oedema” value ([3]; 14th day after CFA) was 84.48%. The “% Rise in Paw Oedema” value ([3]; 14th day after CFA) was 14.77 ± 1.39%, the “% Inhibition of paw oedema” value ([3]; 21st day after CFA) was 87.35% and the “% Rise in Paw Oedema” value ([3]; 21st day after CFA) was 11.99 ± 0.89%.
`O=C(O)C=Cc1ccc(O)cc1` [P-hydroxycinnamic acid, p-hydroxycinnamic acid] gave an IC50 (ovine COX-1; ovine COX-1, colorimetric, TMPD 590 nm, read-out: COX Inhibition (IC50) COX-1) of 229 µM and an IC50 (ovine COX-2; ovine COX-2, colorimetric, TMPD 590 nm, read-out: COX Inhibition (IC50) COX-2) of 246 µM.
For `Oc1cc(O)c2c(c1)OC(c1ccc(O)c(O)c1)C(O)C2` (stereo not shown) [Catechin, catechin], the IC50 (ovine COX-1) was 9.02 µM and the IC50 (ovine COX-2) was 50.4 µM.
